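Tested at 5 concentrations; 48 h exposure; 96-well plates; endpoints linearly interpolated, else capped at highest concentration. TGI denotes the concentration required for complete inhibition of growth.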
Assays:
Assay in all cases: inhibition of tumour cell growth, NCI panel, 48 h
786-0 renal = tested on: 786-0 renal
A498 renal = tested on: A498 renal
A549 NSCLC = tested on: A549 NSCLC
ACHN renal = tested on: ACHN renal
BT-549 breast = tested on: BT-549 breast
CAKI-1 renal = tested on: CAKI-1 renal
CCRF-CEM leukemia = tested on: CCRF-CEM leukemia
COLO 205 colon = tested on: COLO 205 colon
DU-145 prostate = tested on: DU-145 prostate
EKVX NSCLC = tested on: EKVX NSCLC
HCT-116 colon = tested on: HCT-116 colon
HCT-15 colon = tested on: HCT-15 colon
HL-60(TB) leukemia = tested on: HL-60(TB) leukemia
HOP-62 NSCLC = tested on: HOP-62 NSCLC
HOP-92 NSCLC = tested on: HOP-92 NSCLC
HS 578T breast = tested on: HS 578T breast
HT29 colon = tested on: HT29 colon
IGROV1 ovarian = tested on: IGROV1 ovarian
K-562 leukemia = tested on: K-562 leukemia
KM12 colon = tested on: KM12 colon
LOX IMVI melanoma = tested on: LOX IMVI melanoma
M14 melanoma = tested on: M14 melanoma
MALME-3M melanoma = tested on: MALME-3M melanoma
MCF7 breast = tested on: MCF7 breast
MDA-MB-231 breast = tested on: MDA-MB-231 breast
MDA-MB-435 = tested on: MDA-MB-435
MDA-N = tested on: MDA-N
MOLT-4 leukemia = tested on: MOLT-4 leukemia
NCI-H226 lung = tested on: NCI-H226 lung
NCI-H23 lung = tested on: NCI-H23 lung
NCI-H460 lung = tested on: NCI-H460 lung
NCI-H522 lung = tested on: NCI-H522 lung
NCI/ADR-RES ovarian = tested on: NCI/ADR-RES ovarian
OVCAR-3 ovarian = tested on: OVCAR-3 ovarian
OVCAR-4 ovarian = tested on: OVCAR-4 ovarian
OVCAR-5 ovarian = tested on: OVCAR-5 ovarian
OVCAR-8 ovarian = tested on: OVCAR-8 ovarian
PC-3 prostate = tested on: PC-3 prostate
RPMI-8226 leukemia = tested on: RPMI-8226 leukemia
RXF 393 renal = tested on: RXF 393 renal
SF-268 CNS = tested on: SF-268 CNS
SF-295 CNS = tested on: SF-295 CNS
SF-539 CNS = tested on: SF-539 CNS
SK-MEL-2 melanoma = tested on: SK-MEL-2 melanoma
SK-MEL-28 melanoma = tested on: SK-MEL-28 melanoma
SK-MEL-5 melanoma = tested on: SK-MEL-5 melanoma
SK-OV-3 ovarian = tested on: SK-OV-3 ovarian
SN12C renal = tested on: SN12C renal
SNB-19 CNS = tested on: SNB-19 CNS
SNB-75 CNS = tested on: SNB-75 CNS
SR leukemia = tested on: SR leukemia
SW-620 colon = tested on: SW-620 colon
T-47D breast = tested on: T-47D breast
TK-10 renal = tested on: TK-10 renal
U251 CNS = tested on: U251 CNS
UACC-257 melanoma = tested on: UACC-257 melanoma
UACC-62 melanoma = tested on: UACC-62 melanoma
UO-31 renal = tested on: UO-31 renal

COC(=O)CC[C@@H](C)[C@H]1CC[C@H]2[C@@H]3CC[C@@H]4C[C@H](O)CC[C@]4(C)[C@H]3CC[C@]12C
TGI (786-0 renal): 33.8 µM | TGI (A498 renal): 35.1 µM | TGI (A549 NSCLC): 36.6 µM | TGI (ACHN renal): 39.8 µM | TGI (BT-549 breast): 33.8 µM | TGI (CAKI-1 renal): 34.1 µM | TGI (CCRF-CEM leukemia): 46.4 µM | TGI (COLO 205 colon): 35.4 µM | TGI (DU-145 prostate): 32.6 µM | TGI (EKVX NSCLC): 35.6 µM | TGI (HCT-116 colon): 31.8 µM | TGI (HCT-15 colon): 33.7 µM | TGI (HL-60(TB) leukemia): 35.5 µM | TGI (HOP-62 NSCLC): 35.5 µM | TGI (HOP-92 NSCLC): 27.8 µM | TGI (HS 578T breast): 55.8 µM | TGI (HT29 colon): 31.9 µM | TGI (IGROV1 ovarian): 35.4 µM | TGI (K-562 leukemia): 65.7 µM | TGI (KM12 colon): 34.5 µM | TGI (LOX IMVI melanoma): 35.7 µM | TGI (M14 melanoma): 35.8 µM | TGI (MALME-3M melanoma): 34.8 µM | TGI (MCF7 breast): 36.3 µM | TGI (MDA-MB-231 breast): 34.2 µM | TGI (MDA-MB-435): 33 µM | TGI (MDA-N): 35.6 µM | TGI (MOLT-4 leukemia): 40.7 µM | TGI (NCI-H226 lung): 36.6 µM | TGI (NCI-H23 lung): 32.9 µM | TGI (NCI-H460 lung): 39.9 µM | TGI (NCI-H522 lung): 46.8 µM | TGI (NCI/ADR-RES ovarian): 43.6 µM | TGI (OVCAR-3 ovarian): 35 µM | TGI (OVCAR-4 ovarian): 36.5 µM | TGI (OVCAR-5 ovarian): 35.6 µM | TGI (OVCAR-8 ovarian): 38.2 µM | TGI (PC-3 prostate): 32.2 µM | TGI (RPMI-8226 leukemia): > 100 µM | TGI (RXF 393 renal): 33 µM | TGI (SF-268 CNS): 43.2 µM | TGI (SF-295 CNS): 33.9 µM | TGI (SF-539 CNS): 36 µM | TGI (SK-MEL-2 melanoma): 34.2 µM | TGI (SK-MEL-28 melanoma): 35.6 µM | TGI (SK-MEL-5 melanoma): 31 µM | TGI (SK-OV-3 ovarian): 49.9 µM | TGI (SN12C renal): 33.2 µM | TGI (SNB-19 CNS): 44.9 µM | TGI (SNB-75 CNS): 36.1 µM | TGI (SR leukemia): 52.1 µM | TGI (SW-620 colon): > 100 µM | TGI (T-47D breast): 36 µM | TGI (TK-10 renal): 37.4 µM | TGI (U251 CNS): 43.2 µM | TGI (UACC-257 melanoma): 29.5 µM | TGI (UACC-62 melanoma): 34.3 µM | TGI (UO-31 renal): 34.9 µM

NS(=O)(=O)c1ccc(-c2ccc([As](=O)(O)O)cc2)cc1
TGI (786-0 renal): > 100 µM | TGI (A549 NSCLC): > 100 µM | TGI (ACHN renal): > 100 µM | TGI (BT-549 breast): > 100 µM | TGI (CAKI-1 renal): > 100 µM | TGI (COLO 205 colon): > 100 µM | TGI (DU-145 prostate): > 100 µM | TGI (EKVX NSCLC): > 100 µM | TGI (HCT-116 colon): > 100 µM | TGI (HCT-15 colon): > 100 µM | TGI (HL-60(TB) leukemia): > 100 µM | TGI (HOP-62 NSCLC): > 100 µM | TGI (HOP-92 NSCLC): > 100 µM | TGI (HS 578T breast): > 100 µM | TGI (HT29 colon): > 100 µM | TGI (IGROV1 ovarian): > 100 µM | TGI (K-562 leukemia): > 100 µM | TGI (KM12 colon): > 100 µM | TGI (LOX IMVI melanoma): > 100 µM | TGI (M14 melanoma): > 100 µM | TGI (MALME-3M melanoma): > 100 µM | TGI (MCF7 breast): > 100 µM | TGI (MDA-MB-231 breast): > 100 µM | TGI (MDA-MB-435): > 100 µM | TGI (MDA-N): > 100 µM | TGI (MOLT-4 leukemia): > 100 µM | TGI (NCI-H226 lung): > 100 µM | TGI (NCI-H23 lung): > 100 µM | TGI (NCI-H460 lung): > 100 µM | TGI (NCI-H522 lung): > 100 µM | TGI (NCI/ADR-RES ovarian): > 100 µM | TGI (OVCAR-3 ovarian): > 100 µM | TGI (OVCAR-4 ovarian): > 100 µM | TGI (OVCAR-5 ovarian): > 100 µM | TGI (OVCAR-8 ovarian): > 100 µM | TGI (PC-3 prostate): > 100 µM | TGI (RPMI-8226 leukemia): > 100 µM | TGI (RXF 393 renal): > 100 µM | TGI (SF-268 CNS): > 100 µM | TGI (SF-295 CNS): > 100 µM | TGI (SF-539 CNS): > 100 µM | TGI (SK-MEL-2 melanoma): > 100 µM | TGI (SK-MEL-28 melanoma): > 100 µM | TGI (SK-MEL-5 melanoma): > 100 µM | TGI (SK-OV-3 ovarian): > 100 µM | TGI (SN12C renal): > 100 µM | TGI (SNB-19 CNS): > 100 µM | TGI (SNB-75 CNS): > 100 µM | TGI (SR leukemia): > 100 µM | TGI (SW-620 colon): > 100 µM | TGI (T-47D breast): > 100 µM | TGI (TK-10 renal): > 100 µM | TGI (U251 CNS): > 100 µM | TGI (UACC-257 melanoma): > 100 µM | TGI (UACC-62 melanoma): > 100 µM | TGI (UO-31 renal): > 100 µM
